Measured values taken from patent US9802945B2, “Imidazopyridazine derivatives as modulators of the GABAA receptor activity” (Pfizer Limited, priority 2014, dated 2017).
Where a name gives a salt, the structure may show the parent alone. Read-outs that look alike come from different tables or passages of the source.

Tests used:
[1] = target: human recombinant GABA A receptor containing the alpha2, beta2, and gamma3 subunits (Homo sapiens, UniProt P47869+Q99928); experiment: Radioligand competition binding assay with [3H]Ro-15-1788 (Flumazenil)
Procedure: Membranes were prepared from HEK cells expressing hGABA A alpha2beta2-gamma3 receptor, and validated to ascertain protein concentration, receptor expression and to determine the Kd of the flumazenil as well as the Ki of a standard set of compounds before being used to test new compounds.
100 ul of radioligand and 100 ul of membrane in 50 mM Tris-HCl and 0.05% F127 with 1 ul of test compound was incubated for 2 hours to allow the reaction to achieve equilibrium, and then harvested onto filter plates, dried and counted on a TopCount NXT. The data was analysed, and the Ki values were presented as the geometric mean of at least two replicates.

[2] = target: GABA channels expressing the α1 subunit (GABRA1-GABRB3-GABRG2) in HEK cells (Homo sapiens (Human), UniProt P14867+P18507); experiment: QPatch whole-cell patch-clamp electrophysiology, enhancement of GABA current (α1); type: cell-based; conditions: −60 mV, approximately EC10 GABA
Procedure: (§1) Cell suspension containing HEK cells expressing GABRA2-GABRB2-GABRG2 was placed on the QPatch instrument in serum-free medium into the instrument's cell stirrer. […] All recordings were made at room temperature (22-24° C.).
(§2) Current records were acquired at 1 KHz and filtered at 0.3 KHz using the Bessel filter. Series resistance compensation was set to 80% in the QPatch software.
(§3) All compounds were dissolved in dimethyl sulfoxide to make 30 mM or 10 mM stock solutions, which were then diluted to 1000 times the desired final concentration in dimethyl sulfoxide. These were diluted into extracellular solution to attain the final concentrations desired. […] This concentration of dimethyl sulfoxide was present in all samples.
(§4) Currents were recorded at −60 mV, using an approximately EC10 concentration of gamma-aminobutyric acid (GABA).
(§5) Compound effect (% enhancement of gamma-aminobutyric acid current) was calculated using the following formula: [((peak modulator current amplitude−leak)−(GABA current amplitude−leak))/(GABA current amplitude−leak)]*100, where ‘leak’ is leak current at −60 mV, ‘peak modulator current amplitude’ is the current elicited by co-application of gamma-aminobutyric acid and test compound, and ‘GABA current amplitude’ is the current elicited by application of gamma-aminobutyric acid alone.
The ability of the compounds of the formula (I) to modulate the GABA channels expressing the α1 subunit (or GABRA1) can also be measured using an assay analogous to that described above but replacing the GABRA2-GABRB2-GABRG2 gene construct with the GABRA1-GABRB3-GABRG2 gene construct. All other conditions remain the same including the same cell line and conditions for cell growth.

[3] = target: GABRA2-GABRB2-GABRG2 chloride currents in HEK cells (Homo sapiens (Human), UniProt P18507+P47869); experiment: QPatch whole-cell patch-clamp electrophysiology, enhancement of GABA current (α2); type: cell-based; conditions: −60 mV, approximately EC10 GABA
Procedure: Human Embryonic Kidney (HEK) cells were transfected with a GABRA2-GABRB2-GABRG2 construct using standard techniques.
For QPatch electrophysiology testing, cells were harvested from flasks by enzymatic dissociation and resuspended in serum-free medium. Cells were typically used for electrophysiological experiments within 24 to 72 hours after splitting.
as §1, §2, §3, §4, §5

[4] = read-out: GABA-α2 Ki, hGABA A alpha2beta2gamma3 membranes from HEK cells, geometric mean of at least two replicates

GABA channels expressing the α1 subunit (GABRA1-GABRB3-GABRG2) in HEK cells, sequence (P14867 28-456): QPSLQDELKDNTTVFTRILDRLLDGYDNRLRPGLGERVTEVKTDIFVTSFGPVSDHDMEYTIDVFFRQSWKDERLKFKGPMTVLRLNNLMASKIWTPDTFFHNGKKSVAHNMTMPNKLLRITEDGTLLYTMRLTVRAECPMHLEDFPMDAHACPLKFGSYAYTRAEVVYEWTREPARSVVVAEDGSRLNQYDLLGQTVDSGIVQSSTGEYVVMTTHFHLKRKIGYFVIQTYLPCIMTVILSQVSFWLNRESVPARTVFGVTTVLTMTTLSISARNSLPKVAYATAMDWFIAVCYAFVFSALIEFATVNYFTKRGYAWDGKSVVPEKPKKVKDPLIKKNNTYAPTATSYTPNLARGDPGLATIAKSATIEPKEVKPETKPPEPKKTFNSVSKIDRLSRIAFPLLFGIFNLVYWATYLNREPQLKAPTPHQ
GABA channels expressing the α1 subunit (GABRA1-GABRB3-GABRG2) in HEK cells, sequence (P28472 26-473 partner): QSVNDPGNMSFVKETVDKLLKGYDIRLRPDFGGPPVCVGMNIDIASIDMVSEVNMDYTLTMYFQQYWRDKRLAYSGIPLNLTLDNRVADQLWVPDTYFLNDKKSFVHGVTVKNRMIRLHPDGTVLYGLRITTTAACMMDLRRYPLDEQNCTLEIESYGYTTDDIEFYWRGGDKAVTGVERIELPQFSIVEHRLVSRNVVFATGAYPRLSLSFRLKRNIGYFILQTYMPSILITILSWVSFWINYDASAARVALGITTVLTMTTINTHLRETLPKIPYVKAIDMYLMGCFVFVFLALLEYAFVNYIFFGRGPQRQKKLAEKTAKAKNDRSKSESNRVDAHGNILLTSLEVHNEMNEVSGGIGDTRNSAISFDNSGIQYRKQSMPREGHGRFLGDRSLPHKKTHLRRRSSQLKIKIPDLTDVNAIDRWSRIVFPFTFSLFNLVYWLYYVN
GABA channels expressing the α1 subunit (GABRA1-GABRB3-GABRG2) in HEK cells, sequence (P18507 40-475): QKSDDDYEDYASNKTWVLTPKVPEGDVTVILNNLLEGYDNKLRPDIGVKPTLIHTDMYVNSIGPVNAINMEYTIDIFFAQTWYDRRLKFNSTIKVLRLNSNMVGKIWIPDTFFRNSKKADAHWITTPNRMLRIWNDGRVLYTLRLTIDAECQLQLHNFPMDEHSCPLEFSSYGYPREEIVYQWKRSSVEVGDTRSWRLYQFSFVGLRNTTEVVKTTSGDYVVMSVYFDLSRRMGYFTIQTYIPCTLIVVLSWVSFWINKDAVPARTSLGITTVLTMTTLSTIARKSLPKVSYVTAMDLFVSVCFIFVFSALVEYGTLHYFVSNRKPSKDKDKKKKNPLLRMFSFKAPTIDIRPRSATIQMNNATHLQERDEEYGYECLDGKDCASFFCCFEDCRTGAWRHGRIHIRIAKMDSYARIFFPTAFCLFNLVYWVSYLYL
GABRA2-GABRB2-GABRG2 chloride currents in HEK cells, sequence (P47869 29-451): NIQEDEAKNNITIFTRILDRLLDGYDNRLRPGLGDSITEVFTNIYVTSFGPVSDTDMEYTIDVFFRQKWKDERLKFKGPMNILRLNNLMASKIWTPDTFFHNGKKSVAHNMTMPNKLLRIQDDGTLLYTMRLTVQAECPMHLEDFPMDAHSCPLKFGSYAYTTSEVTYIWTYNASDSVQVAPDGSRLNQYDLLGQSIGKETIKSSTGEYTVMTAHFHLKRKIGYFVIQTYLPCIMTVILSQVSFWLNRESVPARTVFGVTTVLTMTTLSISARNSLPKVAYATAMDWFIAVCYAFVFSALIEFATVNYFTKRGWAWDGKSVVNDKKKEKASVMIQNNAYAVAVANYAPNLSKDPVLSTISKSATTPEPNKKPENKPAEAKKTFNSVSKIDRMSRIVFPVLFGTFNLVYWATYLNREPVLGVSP
GABRA2-GABRB2-GABRG2 chloride currents in HEK cells, sequence (P47870 26-512 partner): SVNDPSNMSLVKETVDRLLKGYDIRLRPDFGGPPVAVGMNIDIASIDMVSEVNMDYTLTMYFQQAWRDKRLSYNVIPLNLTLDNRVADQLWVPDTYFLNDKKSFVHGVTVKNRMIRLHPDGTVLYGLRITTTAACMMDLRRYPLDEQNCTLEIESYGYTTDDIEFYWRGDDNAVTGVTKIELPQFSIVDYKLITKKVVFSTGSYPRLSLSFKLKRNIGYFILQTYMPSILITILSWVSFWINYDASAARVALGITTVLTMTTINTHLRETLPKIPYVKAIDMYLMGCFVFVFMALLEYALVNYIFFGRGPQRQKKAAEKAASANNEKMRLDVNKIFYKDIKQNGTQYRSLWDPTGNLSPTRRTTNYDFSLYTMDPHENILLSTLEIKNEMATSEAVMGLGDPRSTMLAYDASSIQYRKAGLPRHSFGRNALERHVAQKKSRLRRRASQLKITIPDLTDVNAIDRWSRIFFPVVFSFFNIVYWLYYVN
GABRA2-GABRB2-GABRG2 chloride currents in HEK cells, sequence (P18507 40-475): as the sequence (P18507 40-475) above

Compound | Ki [1, 4] [µM] | α1 PAM (% enhancement of gamma-aminobutyric acid current) [2] [%] | α2 PAM (% enhancement of gamma-aminobutyric acid current) [3] [%] | Ki [1] [µM]
CCn1cnc2c(-c3ccc(F)c(-c4cc(F)cc(C(=O)NC)c4)c3)cnnc21.O=C(O)C(F)(F)F [Example 19, 5′-(7-Ethyl-7H-imidazo[4,5-c]pyridazin-4-yl)-2′,5-difluoro-N-methylbiphenyl-3-carboxamide trifluoroacetate salt] | 0.051 | 14 | 66 | 
CCn1cnc2c(-c3ccc(F)c(-c4cc(C(=O)N(C)C)ccc4F)c3)cnnc21 [Example 7, 5′-(7-Ethyl-7H-imidazo[4,5-c]pyridazin-4-yl)-2′,6-difluoro-N,N-dimethylbiphenyl-3-carboxamide] | 0.0309 |  | 47 | 
CC(C)n1cnc2c(-c3ccc(F)c(-c4ccc5c(c4)CN(C)C5=O)c3)cnnc21 [Example 2, 5-{2-Fluoro-5-[7-(propan-2-yl)-7H-imidazo[4,5-c]pyridazin-4-yl]phenyl}-2-methyl-2,3-dihydro-1H-isoindol-1-one] | 0.0064 | 12 | 106 | 
CCn1cnc2c(-c3ccc(F)c(-c4ccc5c(c4)C(=O)NC5)c3)cnnc21 [Example 6, 6-[5-(7-Ethyl-7H-imidazo[4,5-c]pyridazin-4-yl)-2-fluorophenyl]-2,3-dihydro-1H-isoindol-1-one] | 0.0818 | −61 | 10 | 
CCn1cnc2c(-c3ccc(F)c(-c4ccc(C(=O)N(C)C)c(F)c4)c3)cnnc21 [Example 17, 5′-(7-Ethyl-7H-imidazo[4,5-c]pyridazin-4-yl)-2′,3-difluoro-N,N-dimethylbiphenyl-4-carboxamide trifluoroacetate salt] | 0.0528 |  |  | 
CCn1cnc2c(-c3ccc(F)c(-c4ccc(C(=O)NC(C)C)cc4)c3)cnnc21 [Example 18, 5′-(7-Ethyl-7H-imidazo[4,5-c]pyridazin-4-yl)-2′-fluoro-N-(propan-2-yl)biphenyl-4-carboxamide trifluoroacetate salt] | 0.0193 |  |  | 
CNC(=O)c1ccc(F)c(-c2cc(-c3cnnc4c3ncn4C3CC3)ccc2F)c1 [Example 8, 5′-(7-Cyclopropyl-7H-imidazo[4,5-c]pyridazin-4-yl)-2′,6-difluoro-N-methyl-biphenyl-3-carboxamide] | 0.029 |  |  | 
CCn1cnc2c(-c3cccc(-c4ccc(C(=O)N(C)C)cc4)c3)cnnc21 [Example 20, 5′-(7-Ethyl-7H-imidazo[4,5-c]pyridazin-4-yl)-N,N-dimethyl-biphenyl-4-carboxamide trifluoroacetate salt] | 0.224 |  |  | 
CCn1cnc2c(-c3ccc(F)c(-c4cccc(C(N)=O)c4)c3)cnnc21.O=C(O)C(F)(F)F [Example 15, 5′-(7-Ethyl-7H-imidazo[4,5-c]pyridazin-4-yl)-2′-fluorobiphenyl-3-carboxamide trifluoroacetate salt] | 0.0203 | −34 | 40 | 

The next lines start with the values.

Ki [1, 4] [µM] | α1 PAM (% enhancement of gamma-aminobutyric acid current) [2] [%] | α2 PAM (% enhancement of gamma-aminobutyric acid current) [3] [%] | Ki [1] [µM] | Compound
 | −1 | 23 | 0.0812 | CCn1cnc2c(-c3ccc(F)c(-c4ccc(C(=O)N(C)C)cc4OC)c3)cnnc21 [Example 22, 5′-(7-Ethyl-7H-imidazo[4,5-c]pyridazin-4-yl)-2′-fluoro-2-methoxy-N,N-dimethylbiphenyl-4-carboxamide]
0.0107 |  | 48 |  | CC(C)n1cnc2c(-c3ccc(F)c(-c4ccc(C(N)=O)cc4)c3)cnnc21 [Example 12, 2′-Fluoro-5′-[7-(propan-2-yl)-7H-imidazo[4,5-c]pyridazin-4-yl]biphenyl-4-carboxamide]
 | −29 | 33 | 0.0063 | CCn1cnc2c(-c3ccc(F)c(-c4ccc(C(=O)NC)cc4OC)c3)cnnc21 [Example 21, 5′-(7-Ethyl-7H-imidazo[4,5-c]pyridazin-4-yl)-2′-fluoro-2-methoxy-N-methylbiphenyl-4-carboxamide]
0.34 |  |  |  | CCn1cnc2c(-c3ccc(F)c(-c4cc(C(=O)N(C)C)ccc4OC)c3)cnnc21 [Example 23, 5′-(7-Ethyl-7H-imidazo[4,5-c]pyridazin-4-yl)-2′-fluoro-6-methoxy-N,N-dimethylbiphenyl-3-carboxamide]
0.0075 | −55 | 11 |  | CCn1cnc2c(-c3ccc(F)c(-c4ccc(C(N)=O)cc4)c3)cnnc21 [Example 14, 5′-(7-Ethyl-7H-imidazo[4,5-c]pyridazin-4-yl)-2′-fluorobiphenyl-4-carboxamide]
0.0205 |  | 60 |  | CNC(=O)c1ccc(-c2cc(-c3cnnc4c3ncn4C3CC3)ccc2F)cc1 [Example 11, 5′-(7-Cyclopropyl-7H-imidazo[4,5-c]pyridazin-4-yl)-2′-fluoro-N-methylbiphenyl-4-carboxamide]
0.0547 | −12 | 36 |  | CN1Cc2cc(-c3cc(-c4cnnc5c4ncn5C4CC4)ccc3F)ccc2C1=O [Example 10, 5-[5-(7-Cyclopropyl-7H-imidazo[4,5-c]pyridazin-4-yl)-2-fluorophenyl]-2-methyl-2,3-dihydro-1H-isoindol-1-one]
